BigSolDB 2.1

CCn1c2ccccc2c2ccccc21
solubility (mole fraction)
Settings	in ethanol	in isopropanol	in methanol	in n-butanol	in n-pentanol	in n-propanol
279.15 K	0.0069	0.0065	0.0028	0.0135	–	0.0092
283.15 K	0.008	0.0076	0.0033	0.0151	0.016	0.0105
287.15 K	0.0095	0.009	0.004	0.0172	0.0183	0.0124
291.15 K	0.0112	0.0107	0.0047	0.0208	0.021	0.0142
295.15 K	0.013	0.0127	0.0057	0.0234	0.025	0.0169
299.15 K	0.0149	0.0152	0.0068	0.0271	0.0292	0.0202
303.15 K	0.0182	0.0183	0.0082	0.0316	0.035	0.024
307.15 K	0.0228	0.0223	0.0098	0.0379	0.042	0.028
311.15 K	0.0274	0.028	0.012	0.0446	0.05	0.033
315.15 K	0.0355	0.0342	0.0147	0.0522	0.0609	0.0401
319.15 K	0.0433	0.0436	0.0179	0.0621	0.0743	0.048
